The values below come from patent US20200367543A1, “SWEETENER AND FLAVOR COMPOSITIONS, METHODS OF MAKING AND METHODS OF USE THEREOF” (EPC Natural Products Co., Ltd., priority 2018, published 2020).

For data set [1] the following is noted: cited from earlier work; for natural sweetness, times of that of sugar: constituents of monk fruit juice or extract; for times sweeter than sucrose: sweetness depends on the tested concentration compared with sucrose; for Sweetness by weight: compared to sucrose.
For data set [2] the following is noted: compared to sucrose; cited from earlier work.
A short description of data set [3]: Sensory evaluation of GSGs and SGs, thaumatin, NHDC and combinations (Ex. 255). The conditions noted are these: combinations of EPCalin and NHDC dissolved in water. The protocol:
4.5 ppm Thaumatin (equivalent to 10 ppm EPCalin) was dissolved in water. Increasing amounts of NHDC (1-5 ppm) were added to the solution and the sensory properties were evaluated.
50 ppm (GSGs and SGs) were dissolved in water. Increasing amounts of NHDC (1-5 ppm) were added to the solution and the sensory properties were evaluated.
50 ppm (GSGs and SGs) and 4.5 ppm Thaumatin (equivalent to 10 ppm EPCalin) were dissolved in water. Increasing amounts of NHDC (1-5 ppm) were added to the solution and the sensory properties were evaluated.

A short description of data set [4]: Kinetics of reaction in dependence of pH-conditions (degradation of Phe and Reb-A, Gluc, Xyl, Suc) by HPLC/MS. Here is the method: Quantitative evaluation was performed using external standardization.
Kinetics of Reaction in Dependence of pH-Conditions

Data set [5] in a line: Assay to test reducing power, active iron-III reduction (Ex. 64). The conditions noted are these: 10 mM, 100° C., 0-5.0 h, diluted 1:10.
The nature of data set [6]: DPPH radical-scavenging activity (Ex. 65). The conditions noted are these: 10 mM, 100° C., 0-5.0 h, diluted 1:10. The protocol:
1 mg 1,1-Diphenyl-2-picrylhydrazyl radical (DPPH)/ml ethanol, dilution to assay concentration were prepared in ethanol (40 μg/mL); Calibration samples were prepared with Ascorbic acid in a concentration of 0-10 μg/mL; as a negative control sample, water was used.
Samples in aqueous solution were used as such or diluted with water.
A 0.1 ml sample (or calibration standard) was mixed with 3.9 ml solution of DPPH
([…]) and reacted while protected from light at room temperature for 30 min. Absorbance was determined at 517 nm against ethanol.
10 mM of amino acid and/or 10 mM sugar were dissolved in 10 ml 0.1 mM KH2PO4-buffer, pH=7.8.
The samples were kept at 100° C. in sealed glass vials (Pyrex 15 ml with screw caps) for 0 (before reaction), 2.5 or 5.0 hours. Thereafter the samples were transferred to an ice water bath and cooled down to room temperature. These samples were diluted 1:10 and used for the test assay for anti-oxidant potential.
For orientation: DPPH is a stable violet radical that fades when it is reduced.

Like-named read-outs stand apart in the source and are kept apart here.

With `OC[C@@H](O)[C@@H](O)[C@H](O)[C@H](O)CO` [Mannitol], the “natural sweetness, times of that of sugar” value (shortened to “natural sweetness, times”) in data set [1] is on record as 0.55-0.65 times. In addition, the Energy density in data set [2] is reported as 0.4.

As for `OC[C@@H](O)[C@@H](O[C@@H]1O[C@H](CO)[C@H](O)[C@H](O)[C@H]1O)[C@H](O)[C@@H](O)CO` [Lactitol], the Energy density in data set [2] is reported as 0.5.

For the molecule `OCC(O)CO` [Glycerol], the Energy density in data set [2] is 1.075.

`COc1ccc(CCC(=O)c2c(O)cc(O[C@@H]3O[C@H](CO)[C@@H](O)[C@H](O)[C@H]3O[C@@H]3O[C@@H](C)[C@H](O)[C@@H](O)[C@H]3O)cc2O)cc1O` [10 ppm NHDC]: the Sensory evaluation entry in data set [3] is “Sweet, steep onset of sweetness, no lingering”.

Regarding rebaudioside B [Reb B], the “% formation from degraded Reb-A” value in data set [4] (reaction of Phe and Reb-A, pH = 5.5) amounted to 23.1%; in data set [4] (reaction of Phe and Reb-A, pH = 7.0), 22.7%; in data set [4] (reaction of Phe and Reb-A, pH = 8.5), 19.1%.

As for `OC[C@H]1O[C@H](O[C@]2(CCl)O[C@H](CCl)[C@@H](O)[C@@H]2O)[C@H](O)[C@@H](O)[C@H]1Cl` [sucralose], the “times sweeter than sucrose” value in data set [1] is listed as “about 600 times”.

In the case of Isomalt, in data set [2], the Energy density is on record as 0.5.

As to Fructo-oligosaccharide, in data set [1], the Sweetness by weight is on record as 0.3-0.5.

Consider `O=C(CO)[C@@H](O)[C@@H](O)[C@H](O)CO` [Tagatose], for which, in data set [2], the Energy density was 0.38.

`OC[C@@H](O)[C@@H](O)[C@H](O)[C@@H](O)CO` [Sorbitol]: in data set [2], the Energy density is 0.65.

For `C=C1C[C@@]23CC[C@H]4[C@@](C)(CCC[C@@]4(C)C(=O)O[C@@H]4O[C@H](CO)[C@@H](O)[C@H](O)[C@H]4O)[C@@H]2CC[C@]1(O[C@@H]1O[C@H](CO)[C@@H](O)[C@H](O[C@@H]2O[C@H](CO)[C@@H](O)[C@H](O)[C@H]2O)[C@H]1O[C@@H]1O[C@H](CO)[C@@H](O)[C@H](O)[C@H]1O)C3` [Reb-A, Rebaudioside A], the “anti-oxidant properties (active iron-III reduction)” value in data set [5] is “substantial anti-oxidant properties”. Further, the “anti-oxidant properties (radical scavenging)” value in data set [6] is recorded as “substantial anti-oxidant properties”.

Take Isomalto-oligosaccharide: in data set [1], the Sweetness by weight is on record as 0.5.

Turning to `O=C(O)[C@H](Cc1ccccc1)NCC(=O)[C@@H](O)[C@H](O)[C@H](O)CO` [MRI (Phe-Glu)], the “% formation from degraded Phe” value is on record as less than 0.10% in data set [4] (reaction of Phe and Suc, pH = 5.5, n.d. = not detected); 0.54% in data set [4] (reaction of Phe and Suc, pH = 7.0, n.d. = not detected); 0.84% in data set [4] (reaction of Phe and Suc, pH = 8.5, n.d. = not detected).

As for `C=C1CC23CC[C@H]4[C@@](C)(CCC[C@@]4(C)C(=O)OC4O[C@H](C(=O)N[C@H](Cc5ccccc5)C(=O)O)[C@@H](O)[C@H](O)[C@H]4O)[C@@H]2CC(O[C@@H]2O[C@H](CO)[C@@H](O)C(O[C@@H]4O[C@H](CO)[C@@H](O)[C@H](O)[C@H]4O)[C@H]2O[C@@H]2O[C@H](CO)[C@@H](O)[C@H](O)[C@H]2O)C1C3` (stereo partly drawn) [MRI (Phe-Reb-A)], the “% formation from degraded Phe” value turned out to be 10.4% in data set [4] (reaction of Phe and Reb-A, pH = 5.5, MRI (Phe-Reb-A): all possible isomers included); 11.3% in data set [4] (reaction of Phe and Reb-A, pH = 7.0, MRI (Phe-Reb-A): all possible isomers included); 14.7% in data set [4] (reaction of Phe and Reb-A, pH = 8.5, MRI (Phe-Reb-A): all possible isomers included).

`OC[C@@H](O)[C@@H](O)CO` [Erythritol]: in data set [2], the Energy density is 0.05.

Regarding `C[C@H](CC[C@@H](O[C@@H]1O[C@H](CO[C@@H]2O[C@H](CO)[C@@H](O)[C@H](O)[C@H]2O)[C@@H](O)[C@H](O)[C@H]1O[C@@H]1O[C@H](CO)[C@@H](O)[C@H](O)[C@H]1O)C(C)(C)O)[C@H]1CC[C@@]2(C)[C@@H]3CC=C4[C@@H](CC[C@H](O[C@@H]5O[C@H](CO[C@@H]6O[C@H](CO)[C@@H](O)[C@H](O)[C@H]6O)[C@@H](O)[C@H](O)[C@H]5O)C4(C)C)[C@]3(C)[C@H](O)C[C@]12C` [mogroside V], the “natural sweetness, times” value in data set [1] is 256-344 times.

Turning to `COc1ccc(CCC(=O)c2c(O)cc(O[C@@H]3O[C@H](CO)[C@@H](O)[C@H](O)[C@H]3O[C@@H]3O[C@@H](C)[C@H](O)[C@@H](O)[C@H]3O)cc2O)cc1O` [NHDC, Neohesperidin dihydrochalcone], the “times sweeter than sugar” value in data set [1] (at threshold concentrations) was 1500-1800 times; in data set [1] (weight-for-weight), “about 340 times”.

For `OC[C@@H](O)[C@@H](O[C@H]1O[C@H](CO)[C@@H](O)[C@H](O)[C@H]1O)[C@H](O)[C@@H](O)CO` [Maltitol], the Energy density in data set [2] is 0.525.

Consider `C[C@H](CC[C@@H](O[C@@H]1O[C@H](CO)[C@@H](O)[C@H](O)[C@H]1O[C@@H]1O[C@H](CO)[C@@H](O)[C@H](O)[C@H]1O)C(C)(C)O)[C@H]1CC[C@@]2(C)[C@H]3CC=C4[C@@H](CC[C@H](O[C@@H]5O[C@H](CO[C@@H]6O[C@H](CO)[C@@H](O)[C@H](O)[C@H]6O)[C@@H](O)[C@H](O)[C@H]5O)C4(C)C)[C@]3(C)[C@H](O)C[C@]12C` [mogroside IV], for which the “natural sweetness, times” value in data set [1] is given as 126 times.

With `O=S(=O)([O-])NC1CCCCC1.[Na+]` [sodium cyclamate], in data set [1], the “times sweeter than sucrose” value was “about 30 times”.

On to `CC1(C)[C@@H](O[C@H]2O[C@H](C(=O)O)[C@@H](O)[C@H](O)[C@H]2O[C@@H]2O[C@H](C(=O)O)[C@@H](O)[C@H](O)[C@H]2O)CC[C@]2(C)[C@H]3C(=O)C=C4[C@@H]5C[C@@](C)(C(=O)O)CC[C@]5(C)CC[C@@]4(C)[C@]3(C)CC[C@@H]12` [Glycyrrhizin], for which the “times sweeter than sucrose” value in data set [1] is 30 to 50 times.
